Measured values published in paper PMC10191551, “Safety, Tolerability, and Pharmacokinetics of Oral Ferric Maltol in Children With Iron Deficiency: Phase 1 Study” (JPGN Reports, 2021).

Conditions: in vivo
Method: The primary objectives were to assess iron uptake and ferric maltol pharmacokinetics. Serum iron and TSAT provided measures of iron uptake. In adults, dissociated maltol undergoes rapid glucuronidation and is cleared in urine as maltol glucuronide (36); therefore, in this study, plasma maltol glucuronide was measured to confirm the rate of clearance in children.
Sparse pharmacokinetic blood sampling was performed at baseline before the morning dose and at prespecified collection windows 0.5–6 hours after the morning dose on days 1 and 10, giving 3 to 6 samples per time point. The post-dose pharmacokinetic sample collection windows were 0.5–<1, 1–<2, 2–<3, 3–<4, and 4–<6 hours, with patients assigned to post-dose pharmacokinetic blood sampling schedules in sequential order at randomization. Individuals had the same schedule on days 1 and 10. Plasma maltol glucuronide and serum iron and TSAT were measured at each time point to calculate standard pharmacokinetic parameters.
The observed values for plasma maltol glucuronide and serum iron and TSAT were summarized by dose group and visit for the ITT population, as were changes from baseline in serum iron and TSAT. The ITT population was also used in the population pharmacokinetic analysis. […]

Cmax and AUC of maltol glucuronide: dose dependence: dose-dependent
Structure (SMILES): Cc1occc(=O)c1O[C@@H]1O[C@H](C(=O)O)[C@@H](O)[C@H](O)[C@H]1O [maltol glucuronide]
